Results from ChEMBL document CHEMBL5055656, “Synthesis of novel indole-thiazolidinone hybrid structures as promising scaffold with anticancer potential” (Bioorg Med Chem, 2021).
Calls of active or inactive are those of the source. The calls are words filed in the database; no cut-off is given here.

How the values were obtained:
[1] = system: HCT-116; assay: Cytotoxicity against human HCT-116 cells assessed as cell growth inhibition measured after 72 hrs by MTT assay; assay type: functional
[2] = Cytotoxicity against human HaCaT cells assessed as cell growth inhibition measured after 72 hrs by MTT assay; assay type: cell-based
[3] = Cytotoxicity against mouse BALB/3T3 cells assessed as cell growth inhibition measured after 72 hrs by MTT assay; assay type: cell-based
[4] = system: HepG2; assay: Cytotoxicity against human HepG2 cells assessed as cell growth inhibition measured after 24 hrs by coomassie brilliant blue staining based total cellular protein assay; assay type: functional
[5] = system: HepG2; assay: Cytotoxicity against human HepG2 cells assessed as cell growth inhibition measured after 48 hrs by coomassie brilliant blue staining based total cellular protein assay; assay type: functional
[6] = system: HepG2; assay: Cytotoxicity against human HepG2 cells assessed as cell growth inhibition measured after 72 hrs by coomassie brilliant blue staining based total cellular protein assay; assay type: functional
[7] = system: HepG2; assay: Cytotoxicity against human HepG2 cells assessed as cell growth inhibition measured after 24 hrs by LDH assay; assay type: functional
[8] = (§1) Cytotoxicity against mouse BALB/3T3 cells assessed as cell growth inhibition measured after 24 hrs by MTT assay; assay type: cell-based; details: BALB/3T3 cells
[9] = system: BALB/3T3; assay: as §1; assay type: cell-based; details: balb/3t3, 24 h
[10] = (§2) Cytotoxicity against mouse BALB/3T3 cells assessed as cell growth inhibition measured after 48 hrs by MTT assay; assay type: cell-based; details: BALB/3T3 cells
[11] = system: BALB/3T3; assay: as §2; assay type: cell-based; details: balb/3t3, 48 h
[12] = (§3) Cytotoxicity against mouse BALB/3T3 cells assessed as cell growth inhibition measured after 24 hrs by neutral red uptake assay; assay type: cell-based; details: BALB/3T3 cells
[13] = system: BALB/3T3; assay: as §3; assay type: cell-based; details: balb/3t3, 24 h
[14] = (§4) Cytotoxicity against mouse BALB/3T3 cells assessed as cell growth inhibition measured after 72 hrs by neutral red uptake assay; assay type: cell-based; details: BALB/3T3 cells
[15] = system: BALB/3T3; assay: as §4; assay type: cell-based; details: balb/3t3, 72 h
[16] = (§5) Cytotoxicity against mouse BALB/3T3 cells assessed as cell growth inhibition measured after 48 hrs by coomassie brilliant blue staining based total cellular protein assay; details: BALB/3T3 cells
[17] = system: BALB/3T3; assay: as §5; details: balb/3t3, 48 h
[18] = (§6) Cytotoxicity against mouse BALB/3T3 cells assessed as cell growth inhibition measured after 72 hrs by coomassie brilliant blue staining based total cellular protein assay; details: BALB/3T3 cells
[19] = system: BALB/3T3; assay: as §6; details: balb/3t3, 72 h
[20] = (§7) Cytotoxicity against mouse BALB/3T3 cells assessed as cell growth inhibition measured after 24 hrs by LDH assay; assay type: cell-based; details: BALB/3T3 cells
[21] = system: BALB/3T3; assay: as §7; assay type: cell-based; details: balb/3t3, 24 h
[22] = (§8) Cytotoxicity against mouse BALB/3T3 cells assessed as cell growth inhibition measured after 48 hrs by LDH assay; assay type: cell-based; details: BALB/3T3 cells
[23] = system: BALB/3T3; assay: as §8; assay type: cell-based; details: balb/3t3, 48 h
[24] = system: HepG2; assay: Induction of apoptosis in human HepG2 cells assessed as activation of cleaved caspase 3 expression at 0.7 uM incubated for 24 hrs by Western blot analysis; assay type: functional, cell-based
[25] = system: HepG2; assay: Induction of apoptosis in human HepG2 cells assessed as activation of cleaved PARP1 expression at 0.7 uM incubated for 24 hrs by Western blot analysis; assay type: functional, cell-based
[26] = system: HCT-116; assay: Induction of apoptosis in human HCT-116 cells assessed as activation of cleaved PARP1 expression at 0.7 uM incubated for 24 hrs by Western blot analysis; assay type: functional, cell-based
[27] = target: Mitogen-activated protein kinase; ERK1/ERK2 (Homo sapiens) (UniProt P27361+P28482); assay: Inhibition of ERK1/2 phosphorylation in human HepG2 cells at 45 uM after 24 hrs by Western blotting analysis; assay type: cell-based
[28] = system: HepG2; assay: Induction of apoptosis in human HepG2 cells assessed as increase in Cdk2 expression at 45 uM after 24 hrs by Western blot analysis; assay type: functional, cell-based
[29] = system: HepG2; assay: Induction of cell cycle arrest in human HepG2 cells assessed as effect on phospho-Chk2 expression at 45 uM measured after 24 hrs by Western blot analysis; assay type: functional, cell-based
[30] = system: HepG2; assay: Induction of cell cycle arrest in human HepG2 cells assessed as effect of phospho-Rb expression at 45 uM measured after 24 hrs by Western blot analysis; assay type: functional, cell-based
[31] = system: MCF7; assay: Induction of cell cycle arrest in human MCF7 cells assessed as decrease in phospho-Rb expression at 45 uM measured after 24 hrs by Western blot analysis; assay type: functional, cell-based
[32] = system: HCT-116; assay: Induction of DNA damage in human HCT-116 cells assessed as increase in tail length at 0.7 uM incubated measured after 24 hrs by alkaline Comet assay; assay type: functional, cell-based
[33] = system: HCT-116; assay: Induction of DNA damage in human HCT-116 cells assessed as increase in olive tail moment incubated at 0.7 uM measured after 24 hrs by alkaline Comet assay; assay type: functional
[34] = system: HepG2; assay: Induction of DNA damage in human HepG2 cells assessed as increase in olive tail moment incubated at 0.7 uM measured after 24 hrs by alkaline Comet assay; assay type: functional
[35] = system: BALB/3T3; assay: Induction of DNA damage in mouse BALB/3T3 cells assessed as increase in olive tail moment incubated at 55 uM measured after 24 hrs by alkaline Comet assay; assay type: cell-based; details: balb/3t3, 24 h
[36] = system: Salmon testes DNA; assay: Displacement of methyl green from salmon sperm DNA at 10 uM measured after 2 hrs by fluorescence plate reader method relative to control; assay type: cell-based; details: Salmo salar, Spermatozoa
[37] = Selectivity index, ratio of GI50 for human HaCaT cells to GI50 for human MCF7 cells; assay type: toxicity; details: HaCaT cells versus MCF7 cells, read-out: RatioGI50
[38] = Selectivity index, ratio of GI50 for human HaCaT cells to GI50 for human HeLa cells; assay type: toxicity; details: HaCaT cells versus HeLa cells, read-out: RatioGI50
[39] = Selectivity index, ratio of GI50 for human HaCaT cells to GI50 for human WM793 cells
[40] = Selectivity index, ratio of GI50 for mouse BALA/3T3 cells to GI50 for human HCT-116 cells; assay type: toxicity; details: BALA/3T3 cells versus HCT-116 cells, read-out: RatioGI50
[41] = Selectivity index, ratio of GI50 for mouse BALA/3T3 cells to GI50 for human WM793 cells
[42] = Selectivity index, ratio of GI50 for mouse BALA/3T3 cells to GI50 for human THP-1 cells
[43] = Selectivity index, ratio of GI50 for mouse BALA/3T3 cells to GI50 for human HepG2 cells measured after 72 hrs by neutral red uptake assay; assay type: toxicity; details: BALA/3T3 cells versus HepG2 cells, read-out: Selectivity Index
[44] = Selectivity index, ratio of GI50 for mouse BALA/3T3 cells to GI50 for human HepG2 cells measured after 24 hrs by LDH assay; assay type: toxicity; details: BALA/3T3 cells versus HepG2 cells, read-out: Selectivity Index
[45] = Selectivity index, ratio of GI50 for mouse BALA/3T3 cells to GI50 for human HepG2 cells measured after 72 hrs by LDH assay; assay type: toxicity; details: BALA/3T3 cells versus HepG2 cells, read-out: Selectivity Index

Mitogen-activated protein kinase; ERK1/ERK2 (Homo sapiens), sequence (P27361 whole entry, looked up): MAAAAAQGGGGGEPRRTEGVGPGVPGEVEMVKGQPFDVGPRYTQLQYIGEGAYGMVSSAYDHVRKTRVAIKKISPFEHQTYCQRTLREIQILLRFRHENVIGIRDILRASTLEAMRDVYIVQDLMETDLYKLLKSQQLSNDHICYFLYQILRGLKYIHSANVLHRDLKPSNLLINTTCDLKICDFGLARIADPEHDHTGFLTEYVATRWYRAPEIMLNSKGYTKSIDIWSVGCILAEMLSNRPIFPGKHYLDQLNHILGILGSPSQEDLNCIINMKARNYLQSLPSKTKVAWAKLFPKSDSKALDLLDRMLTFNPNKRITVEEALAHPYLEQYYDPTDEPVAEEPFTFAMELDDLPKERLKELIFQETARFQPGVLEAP
Mitogen-activated protein kinase; ERK1/ERK2 (Homo sapiens), sequence (P28482 whole entry, looked up): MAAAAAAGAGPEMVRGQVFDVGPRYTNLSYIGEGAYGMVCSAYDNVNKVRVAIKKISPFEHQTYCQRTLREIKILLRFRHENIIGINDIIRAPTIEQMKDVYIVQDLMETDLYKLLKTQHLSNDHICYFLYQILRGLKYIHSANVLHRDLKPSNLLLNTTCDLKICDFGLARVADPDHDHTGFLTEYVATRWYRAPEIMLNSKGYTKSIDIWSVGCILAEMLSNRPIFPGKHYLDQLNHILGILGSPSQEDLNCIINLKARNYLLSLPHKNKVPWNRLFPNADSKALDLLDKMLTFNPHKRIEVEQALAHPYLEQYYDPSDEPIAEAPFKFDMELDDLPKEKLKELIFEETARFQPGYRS

COC(=O)c1[nH]c2ccc(F)cc2c1/C=C1\SC(=S)NC1=O
GI50 [1]: 0.8 µM | GI50 at 72 h [2]: 98.3 µM | GI50 at 72 h [3]: 40.8 µM | GI20 [4]: 3.7 µM | GI80 [4]: >100 µM | GI50 ([4]; Homo sapiens, HepG2): > 100 µM | GI20 [5]: 1.6 µM | GI80 [5]: >100 µM | GI50 ([5]; Homo sapiens, HepG2): 63.9 µM | GI20 [6]: 0.08 µM | GI80 [6]: >100 µM | GI50 ([6]; Homo sapiens, HepG2): 35.6 µM | GI20 [7]: <0.01 µM | GI80 [7]: 20.3 µM | GI50 ([7]; Homo sapiens, HepG2): 0.31 µM | GI50 at 24 h [8]: 54.3 µM | GI20 [9]: 7.9 µM | GI80 [9]: > 100 µM | GI50 at 48 h [10]: 25 µM | GI20 [11]: 0.8 µM | GI80 [11]: 84.8 µM | GI50 at 24 h [12]: > 100 µM | GI20 [13]: 5.4 µM | GI80 [13]: > 100 µM | GI50 at 72 h [14]: 51.5 µM | GI20 [15]: 0.7 µM | GI80 [15]: > 100 µM | GI50 at 48 h [16]: > 100 µM | GI20 [17]: 3.7 µM | GI80 [17]: > 100 µM | GI50 at 72 h [18]: 48.3 µM | GI20 [19]: 1.6 µM | GI80 [19]: > 100 µM | GI50 at 24 h [20]: > 100 µM | GI20 [21]: > 100 µM | GI80 [21]: > 100 µM | GI50 at 48 h [22]: 89.7 µM | GI20 [23]: 16.4 µM | GI80 [23]: > 100 µM | Activity [24]: Active | Activity [25]: Active | Activity [26]: Active | inhibition [27]: inactive | Activity [28]: Active | Activity [29]: inactive | Activity [30]: inactive | Activity [31]: Active | Activity [32]: Active | Activity [33]: 3.1 | Activity [34]: 13.2 | Activity [35]: 3.5 | Activity [36]: 5.4% | selectivity ratio [37]: 99.4 | selectivity ratio [38]: 1.41 | RatioGI50 [39]: 0.87 | selectivity ratio [40]: 86.9 | RatioGI50 [41]: 0.87 | RatioGI50 [42]: 1.11 | selectivity ratio at 72 h [43]: 8.9 | selectivity ratio at 24 h [44]: 323 | selectivity ratio at 72 h [45]: 1570
